Data published in patent US20080118437A1, “Diagnosis and treatment O prostate cancer” (Regents of the University of Michigan, priority 2006, published 2008).

Key:
PC-3Luc cells [1] = experiment: WST-1 proliferation assay with hrCCL2 and anti-CCL2 antibodies; assay type: cell-based, human; details: 72 hours, antibodies 30 μg/mL
Method: Cells were seeded at a density of 1×10^5 cells/ml for PC-3Luc cells in a 96 well plate in RPMI+10% FBS (FCS is mentioned in previous section). Twenty-four hours after seeding, media was changed to either serum-free RPMI or RPMI+10% FBS. Cell growth was determined 72 hours later using the WST-1 assay (Pierce Biotech, Inc.) following the manufacturer's instructions.

[2] = system: HDMVEC (human dermal microvacular endothelial cells); experiment: Endothelial tube formation assay in VCaP conditioned media; assay type: cell-based; details: 30 μg/mL in VCaP conditioned media; vs isotype control antibody
Method: In vitro tube formation was performed as previously described (Zhou et al., Int J Cancer 110 (2004) 800-806). Growth factor reduced […] was diluted with cold serum-free medium to a concentration of 10 mg/ml. 50 μl of the solution was added to each well of a 96-well plate and allowed to form a gel at 37° C. for 30 min. HDMVEC (human dermal microvacular endothelial cells) cells (150,000 cells/ml) in VCaP conditioned media (VCaP CM) were added to each well and incubated overnight at 37° C. in 5% CO2. […] Under these conditions, EC will form delicate networks of tubes that are detectable within 2-3 h and are fully developed after 8-12 h. After overnight incubation the wells were washed, and the […] and its endothelial tubes were fixed with 3% paraformaldehyde. Tube formation was quantified by counting the number of sprouts that developed per objective field (100×) and assays were performed in triplicate from 3 independent experiments.

PC-3Luc cells [3] = experiment: Bioluminescent in vivo model of metastasis (Examples 1 and 2); parameters: species or system male SCID mice; details: Day 35; 2 mg/Kg twice weekly i.p. from Day 14
Method: Bioluminescent in vivo model of metastatsis—Bioluminescent imaging of PC-3^Luc was preformed as previously described through The University of Michigan Small Animal Imaging Resource facility (MSAIR) (Kalikin 2003). Briefly, PC-3Luc cells were introduced into male SCID mice (5-6 wks) by intracardiac injections. Mice were serially imaged weekly for 6 weeks using a CCD IVIS™ system using a 50 mm lens (Xenogen Corp, Alameda, Calif.) and the results were analyzed using […] software (Xenogen Corp.). Mice were separated into one of five groups; 1) PBS control, 2) anti-hIgG control human antibody, 3) anti-cVaM control mouse antibody, 4) anti-MCP1 (human), 5) anti-MCP1/JE (mouse). Treatment began at week 2 post-intracardiac injection and mice received 2 mg/Kg antibody twice weekly by intraperitoneal injection. Mice were injected with luciferin (40 mg/mL) intraperitoneally and ventral images were acquired 15 min post-injection under 1.75% isofluorane/air anesthesia. Total tumor burden of each animal was calculated using regions of interest (ROIs) that encompassed the entire animal. Animals were sacrificed after week 6 image and individual organs were harvested and immediately placed in formalin.

CNTO888: human IgG1κ antibody that neutralizes human CCL2
cell viability (WST-1) as a measure of proliferation, mean ±SD (PC-3Luc cells [1]; CCL2 10 ng/mL): 112.52±10.2
cell viability (WST-1) as a measure of proliferation, mean ±SD (PC-3Luc cells [1]; CCL2 100 ng/mL): 132.93±17.08
number of capillary-like tubes formed [2]: significantly reduced
reduction in overall tumor burden compared to control antibody (PC-3Luc cells [3]): 46.52%
